Structures can show the parent of a compound that is named as a salt.
target: T1, Rat brain protein farnesyltransferase (Rattus norvegicus, UniProt Q02293+Q04631); assay: In vitro inhibition of protein farnesyltransferase, Amersham scintillation proximity assay with biotin-K Ras B fragment; format: biochemical; conditions: Inhibition of farnesyltransferase; compound at 1 × 10^−6 M (Table 2); read-out: % inhibition at 1 × 10^−6 M
T1 construct: The enzyme is purified according to Reiss, Y., et al., Cell, 62: 81-88 (1990), utilizing steps one through three; from tissue; host or cells: rat brain
Text: The ability of the compounds of the invention to inhibit protein farnesyltransferase or protein geranylgeranyltransferase can be measured according to the method of Moores, et al., J. Biol. Chem. 266: 14603 (1991) or the method of Vogt, et al., J. Biol. Chem. 270:660-664 (1995). In addition, procedures for determination of the inhibition of farnesylation of the oncogene protein Ras are described by Goldstein, et al., J. Biol. Chem., 266:15575-15578 (1991) and by Singh in U.S. Pat. No. 5,245,061.
In addition, in vitro inhibition of protein farnesyltransferase may be measured by the following procedure. Rat brain protein farnesyltransferase activity is measured using an Amersham Life Science commercial scintillation proximity assay kit and substituting a biotin-K Ras B fragment (biotin-[…]Ue-Met-CO2H), 0.1 mM final concentration, for the biotin-lamin substrate provided by Amersham. The enzyme is purified according to Reiss, Y., et al., Cell, 62: 81-88 (1990), utilizing steps one through three. […]
The % inhibition of protein farnesyltransferase was determined for representative compounds of the invention.

Row | inhibition at 1 µM [%] | SMILES
1 | 94 | CSCC[C@H](NC(=O)c1ccc(CNc2cccnc2)cc1-c1ccccc1)C(=O)O [Example 227, [4-(Pyrid-3-ylaminomethyl)-2-phenylbenzoyl]methionine]
2 | 39 | CCc1nc(NC(=O)c2ccc(COc3cccnc3)cc2-c2ccccc2)sc1C(=O)O [Example 228]
3 | 65 | CSCC[C@H](NC(=O)c1ccc(CS(=O)(=O)c2cccnc2)cc1-c1ccccc1)C(=O)O [Example 233, [4-(3-Pyridylsulfonylmethyl)-2-phenylbenzoyl]methionine]
4 | 4 | COC(=O)[C@H](CCSC)NC(=O)c1ccc(COc2cccnc2)cc1-c1ccccc1 [Example 234, [4-(3-Pyridyloxymethyl)-2-phenylbenzoyl]methionine Methyl Ester]
5 | 95 | CSCC[C@H](NC(=O)c1ccc(COc2cccnc2)cc1-c1ccccc1)C(=O)O [Example 235, [4-(3-Pyridyloxymethyl)-2-phenylbenzoyl]methionine]
6 | 98 | CSCC[C@H](NC(=O)c1ccc(CSc2cccnc2)cc1-c1ccccc1)C(=O)O [Example 237, [4-(3-Pyridylthiomethyl)-2-phenylbenzoyl]methionine]
7 | 98 | CSCC[C@H](NC(=O)c1ccc(OCc2cccnc2)cc1-c1ccccc1)C(=O)O [Example 240, [4-(3-Pyridylmethyloxy)-2-phenylbenzoyl-]methionine]
8 | 21 | CCCC[C@H](NC(=O)c1ccc(COc2cccnc2)cc1-c1ccccc1)C(=O)O [Example 244, N-[4-(3-Pyridyloxymethyl)-2-phenylbenzoyl]norleucine]
9 | 50 | COCC[C@H](NC(=O)c1ccc(COc2cccnc2)cc1-c1ccccc1)C(=O)O [Example 245]
10 | 79 | CSCC[C@@H](CC(=O)O)NC(=O)c1ccc(COc2cccnc2)cc1-c1ccccc1 [Example 248]

The remaining lines, values behind:

Row | SMILES | inhibition at 1 µM [%]
11 | CSCC[C@H](NC(=O)c1ccc(C#Cc2cccnc2)cc1-c1ccccc1)C(=O)O [Example 218, {4-[(Pyrid-3-yl)ethynyl]-2-phenylbenzoyl}methionine Hydrochloride] | 89
12 | CS(=O)(=O)CC[C@H](NC(=O)c1ccc(/C=C/c2cccnc2)cc1-c1ccccc1)C(=O)O [Example 220, N-{4-[2-(Pyrid-3-yl)ethenyl]-2-phenylbenzoyl]-2-amino-4-(methylsulfonyl)butanoic Acid] | 92
13 | CC1(C)O[C@H](c2cccnc2)[C@@H](c2ccc(C(=O)N[C@@H](CCS(C)(=O)=O)C(=O)O)c(-c3ccccc3)c2)O1 [Example 222, N-{4-[2,2-Dimethyl-4-(3-pyridyl)-1,3-dioxolan-5-yl-]-2-phenylbenzoyl}-2-amino-4-methanesulfonylbutanoic Acid] | 41
14 | CCCC(=O)OC(c1cccnc1)C(OC(=O)CCC)c1ccc(C(=O)N[C@@H](CCS(C)(=O)=O)C(=O)O)c(-c2ccccc2)c1 (stereo partly shown) [Example 223] | 63
15 | CSCC[C@H](NC(=O)c1ccc(CNCc2c[nH]cn2)cc1-c1ccccc1)C(=O)O [Example 225, [4-(1H-Imidazol-4-ylmethylaminomethyl)-2-phenylbenzoyl]methionine] | 93
16 | COC(=O)[C@H](CCSC)NC(=O)c1ccc(CNc2cccnc2)cc1-c1ccccc1 [Example 226, [4-(Pyrid-3-ylaminomethyl)-2-phenylbenzoyl]methionine Methyl Ester Hydrochloride] | 23
17 | CS(=O)(=O)CC[C@H](NC(=O)c1ccc(CNc2cccnc2)cc1-c1ccccc1)C(=O)O [Example 239, N-[4-(3-Pyridylaminomethyl)-2-phenylbenzoyl]-2-amino-4-(methylsulfonyl)butanoic Acid] | 97
18 | CSCC[C@H](NC(=O)c1ccc(Sc2cccnc2)cc1-c1ccccc1)C(=O)O [Example 241] | 41
19 | CSCC[C@H](NC(=O)c1ccc(CSCc2c[nH]cn2)cc1-c1ccccc1)C(=O)O [Example 242, [4-(1H-Imidazol-4-ylmethylthiomethyl)-2-phenylbenzoyl]methionine] | 99
